Data as given in patent publication US4430319A, “Radioactive iodine labeled phenolic amines” (State University of New York, priority 1982, dated 1984).

Assay: Biodistribution of I-123 Compound in rats (i.v. injection, excised organs gamma counted)
Assay type: in vivo, Sprague-Dawley male rats
Conditions: for Blood/Brain: concentration ratio calculated from % dose/gram of wet tissue; for Biodistribution, Brain / Biodistribution, Heart / Biodistribution, Kidneys / Biodistribution, Liver / Biodistribution, Lungs / Biodistribution, Skin / Biodistribution, Spleen / Biodistribution, Stomach / Biodistribution, Thyroids / Biodistribution, Blood / Biodistribution, Muscle: average of 3; for Biodistribution, Blood: blood taken as 7% of body weight; for Biodistribution, Muscle: muscle taken as 40% of body weight
Experimental: Studies of distribution of the optimum radiopharmaceutical compound of the present invention in rats, the results of which are reflected in Table 1, were conducted according to standard practice in the pharmacological sciences, and therefore need not be described here in great detail. Nevertheless, for the sake of complete understanding of the present invention, some experimental details of these studies are briefly described below: Sprague-Dawley male rats (220-300 g) were injected intravenously (femoral vein) with a 0.2 ml solution (0.5-20. micro Ci) under light ether anaesthesia. At different time periods after the injection, the animals were sacrificed and organs of interest were excised and counted in a well counter. Percent dose was estimated by comparison of tissue counts to suitably diluted aliquots of the injected material. Total activities in blood and muscle were calculated by assuming that they are 7% and 40% of the body weight respectively. Sprague-Dawley male rats (220-300 g) under light ether anesthesia were injected intravenously with 0.2 ml of a saline solution containing 0.5-20 uCi of test compound (specific activity 0.5-1.0 uCi/mg). At different time periods after injection the animals were put under ether anesthesia and killed by cardiactomy. The organs of interest were excised, weighed and counted in a Beckman automatic gamma counter (Model 4000). The % dose/organ was determined by comparison of tissue radioactivity levels to suitably diluted aliquots of the injected dose. The approximate % dose/g of wet tissue or organ can be calculated by dividing the % dose/organ by the mean organ weight (mean weights: heart 0.85 g, brain 1.65 g, blood 18 g, liver 9 g, kidneys 1.9 g, lungs 1.6 g).

[1] = 2 min after i.v. injection, rats
[2] = 1 hr after i.v. injection, rats

Blood/Brain (2 min after i.v. injection): 14.84 | Biodistribution, Brain [1]: 2.74 % dose/organ | Biodistribution, Heart [1]: 2.71 % dose/organ | Biodistribution, Kidneys [1]: 8.06 % dose/organ | Biodistribution, Liver [1]: 5.52 % dose/organ | Biodistribution, Lungs [1]: 36.53 % dose/organ | Biodistribution, Skin [1]: 6.73 % dose/organ | Biodistribution, Spleen [1]: 0.72 % dose/organ | Biodistribution, Stomach [1]: 0.80 % dose/organ | Biodistribution, Thyroids [1]: 0.59 % dose/organ | Biodistribution, Blood [1]: 2.02 % dose/organ | Biodistribution, Muscle [1]: 5.66 % dose/organ | Blood/Brain (1 hr after i.v. injection): 32.18 | Biodistribution, Brain [2]: 2.50 % dose/organ | Biodistribution, Heart [2]: 0.29 % dose/organ | Biodistribution, Kidneys [2]: 2.87 % dose/organ | Biodistribution, Liver [2]: 4.68 % dose/organ | Biodistribution, Lungs [2]: 18.25 % dose/organ | Biodistribution, Skin [2]: 9.21 % dose/organ | Biodistribution, Spleen [2]: 1.58 % dose/organ | Biodistribution, Stomach [2]: 0.93 % dose/organ | Biodistribution, Thyroids [2]: 0.06 % dose/organ | Biodistribution, Blood [2]: 0.85 % dose/organ | Biodistribution, Muscle [2]: 12.77 % dose/organ | initial uptake in the brain, lung and liver (rats, i.v., Table 1, in words): high initial uptake | persistence of uptake in the brain, lung and liver (rats, i.v., Table 1, in words): persists sufficiently to allow imaging
SMILES: Cc1cc([123I])cc(CN(C)CCCN(C)C)c1O [I-123 Compound, N,N,N-trimethyl-N'[2-hydroxy-3-methyl-5-iodobenzyl]-1,3-propanediamines]
